In ChEMBL document CHEMBL6109106, “Rational design, synthesis and anti-inflammatory activity of 6-substituted dihydrobenzophenanthridine derivatives” (Bioorg Med Chem, 2025):
Active and inactive are the calls of the source. The rule behind the calls is not given here.

Columns and labels:
[1] = system: RAW264.7; assay: Anti-inflammatory activity in LPS-induced mouse RAW264.7 cells assessed as inhibition of NO release at 20 uM preincubated with compound for 1 hrs followed by LPS stimulation and measured after 24 hrs by Griess reagent based analysis (reference value: 0 %); type: functional; conditions: for inhibition at 20 µM: Mus musculus; for inhibition (INH): time 25 hrs
[2] = system: RAW264.7; assay: Anti-inflammatory activity in LPS-induced mouse RAW264.7 cells assessed as NO emission at 20 uM preincubated with compound for 1 hrs followed by LPS stimulation and measured after 24 hrs by Griess reagent based analysis (reference value: 14.05 +/- 1.19 microM); type: functional; conditions: time 25 hrs
[3] = (§1) Cytotoxicity against mouse RAW264.7 cells assessed as survival rate at 20 uM incubated for 24 hrs by MTT assay (reference value: 100 %); type: toxicity, cell-based; conditions: RAW264.7 cells, read-out: Survival
[4] = system: Mus musculus; assay: Anti-inflammatory activity in DSS-induced acute colitis male C57BL/6 mouse model assessed as complete colonic mucosa with crypts at 200 mg/kg, po administered for 7 days by H and E staining based analysis; type: functional, organism-based; conditions: time 7.0 day
[5] = system: Mus musculus; assay: Anti-inflammatory activity in DSS-induced acute colitis male C57BL/6 mouse model assessed as reduction in infiltration of inflammatory cells in colon at 200 mg/kg, po administered for 7 days by H and E staining based analysis; type: functional, organism-based; conditions: time 7.0 day
[6] = system: RAW264.7; assay: as §1; type: toxicity, cell-based; conditions: raw264.7, 24 h, 20 µM
[7] = system: RAW264.7; assay: Anti-inflammatory activity in LPS-induced mouse RAW264.7 cells assessed as reduction in IL-6 level preincubated with compound for 1 hrs followed by LPS stimulation and measured after 24 hrs by ELISA; type: functional, cell-based; conditions: dose 10-160 µM, time 25.0 hrs
[8] = system: Mus musculus; assay: Anti-inflammatory activity in DSS-induced acute colitis male C57BL/6 mouse model assessed as decrease in IL6 expression level in colon at 20 to 80 mg/kg, po administered for 7 days by immunohistochemical staining based analysis; type: functional, organism-based; conditions: dose 20-80 mg/kg, time 7.0 day
[9] = system: Mus musculus; assay: Anti-inflammatory activity in DSS-induced acute colitis male C57BL/6 mouse model assessed as decrease in IL1beta expression level in colon at 20 to 80 mg/kg, po administered for 7 days by immunohistochemical staining based analysis; type: functional, organism-based; conditions: dose 20-80 mg/kg, time 7.0 day
[10] = system: Mus musculus; assay: Anti-inflammatory activity in DSS-induced acute colitis male C57BL/6 mouse model assessed as increase in intestine length at 20 to 80 mg/kg, po administered for 7 days; type: functional, organism-based; conditions: dose 20-80 mg/kg, time 7.0 day
[11] = system: Mus musculus; assay: Anti-inflammatory activity in DSS-induced acute colitis male C57BL/6 mouse model assessed as complete colonic mucosa with crypts administered orally for 7 days by H and E staining based analysis; type: functional, organism-based; conditions: dose 20-80 mg/kg, route po, time 7.0 day
[12] = system: RAW264.7; assay: Anti-inflammatory activity in LPS-induced mouse RAW264.7 cells assessed as reduction in TNFalpha level preincubated with compound for 1 hrs followed by LPS stimulation and measured after 24 hrs by ELISA; type: functional, cell-based; conditions: dose 10-160 µM, time 25.0 hrs
[13] = system: RAW264.7; assay: Anti-inflammatory activity in LPS-induced mouse RAW264.7 cells assessed as reduction in TNFalpha level at >20 uM preincubated with compound for 1 hrs followed by LPS stimulation and measured after 24 hrs by ELISA; type: functional, cell-based; conditions: time 25.0 hrs
[14] = system: RAW264.7; assay: Cytotoxicity against mouse RAW264.7 cells assessed as reduction in cell viability up to 160 uM incubated for 24 hrs by MTT assay; type: toxicity, cell-based; conditions: raw264.7, 24 h
[15] = system: RAW264.7; assay: Anti-inflammatory activity in LPS-induced mouse RAW264.7 cells assessed as reduction in IL-6 level at >40 uM preincubated with compound for 1 hrs followed by LPS stimulation and measured after 24 hrs by ELISA; type: functional, cell-based; conditions: time 25.0 hrs
[16] = system: Mus musculus; assay: Anti-inflammatory activity in DSS-induced acute colitis male C57BL/6 mouse model assessed as reduction in infiltration of inflammatory cells in colon administered orally for 7 days by H and E staining based analysis; type: functional, organism-based; conditions: dose 20-80 mg/kg, route po, time 7.0 day
[17] = system: Mus musculus; assay: Anti-inflammatory activity in DSS-induced acute colitis male C57BL/6 mouse model assessed as decrease in TNF-alpha expression level in colon at 20 to 80 mg/kg, po administered for 7 days by immunohistochemical staining based analysis; type: functional, organism-based; conditions: dose 20-80 mg/kg, time 7.0 day

Compound	inhibition at 20 µM ([1]; RAW264.7, 25 h)	Activity [2]	viability at 24 h, 20 µM [3]	other results
CCC(C)C1c2c(ccc3c2OCO3)-c2ccc3cc4c(cc3c2N1C)OCO4 (centres undefined)	5.57%	13.15 µM	114%	
Nc1ccc(O)c(C(=O)O)c1				Activity [4]: Active; Activity [5]: Active
CCCCNC(=O)CC1c2c(ccc(OC)c2OC)-c2ccc3cc4c(cc3c2N1C)OCO4 (centres undefined)	41.1%	8.22 µM	92.1%	
CCC(C)C1c2c(ccc(OC)c2OC)-c2ccc3cc4c(cc3c2N1C)OCO4 (centres undefined)	17%	11.52 µM	91.3%	
COC(=O)CCC1c2c(ccc3c2OCO3)-c2ccc3cc4c(cc3c2N1C)OCO4 (centres undefined)	21.4%	10.94 µM	110%	
COc1ccc2c(c1OC)C(CC(=O)[O-])N(C)c1c-2ccc2cc3c(cc12)OCO3.[Na+] (centres undefined)		12.98 µM	98.8%	inhibition (INH) [1]: 6.77%
COc1ccc2c(c1OC)C(CCO)N(C)c1c-2ccc2cc3c(cc12)OCO3 (centres undefined)	30.1%	9.75 µM	103%	
CCOC(=O)CC1c2c(ccc3c2OCO3)-c2ccc3cc4c(cc3c2N1C)OCO4 (centres undefined)	24.5%	10.5 µM	109%	
C=C(CC1c2c(ccc(OC)c2OC)-c2ccc3cc4c(cc3c2N1C)OCO4)C(=O)OC (centres undefined)	27.2%	10.14 µM	130%	
COC(=O)CCC1c2c(ccc(OC)c2OC)-c2ccc3cc4c(cc3c2N1C)OCO4 (centres undefined)	27.5%	10.11 µM	97.7%	
CN1c2c(ccc3cc4c(cc23)OCO4)-c2ccc3c(c2C1CCO)OCO3 (centres undefined)	10.1%	11.57 µM	160%	
CN1c2c(ccc3cc4c(cc23)OCO4)-c2ccc3c(c2C1CC(=O)[O-])OCO3.[Na+] (centres undefined)	16.1%	11.66 µM	91.8%	
CCCCNC(=O)CC1c2c(ccc3c2OCO3)-c2ccc3cc4c(cc3c2N1C)OCO4 (centres undefined)	24.5%	10.48 µM	101%	
CN1c2c(ccc3cc4c(cc23)OCO4)-c2ccc3c(c2C1CC(=O)O)OCO3 (centres undefined)		9.55 µM		inhibition (INH) [1]: 31.45%; Survival [6]: 93.19%
COc1ccc2c(c1OC)C(CC(=O)O)N(C)c1c-2ccc2cc3c(cc12)OCO3 (centres undefined)		9.1 µM		inhibition (INH) [1]: 34.87%; Survival [6]: 82.98%
CN1Cc2c(ccc3c2OCO3)-c2ccc3cc4c(cc3c21)OCO4 [DIHYDROSANGUINARINE]		10.36 µM	88.7%	inhibition at 20 µM ([1]; RAW264.7, time 25 hrs): 26.1%
COc1ccc2c(c1OC)CN(C)c1c-2ccc2cc3c(cc12)OCO3 [DIHYDROCHELERYTHRINE]	28.9%	9.91 µM	94.3%	
C=C(CC1c2c(ccc3c2OCO3)-c2ccc3cc4c(cc3c2N1C)OCO4)C(=O)OC (centres undefined)	9.4%	12.66 µM	111%	
CCCOC(=O)C(C)C1c2c(ccc(OC)c2OC)-c2ccc3cc4c(cc3c2N1C)OCO4 (centres undefined)	10.3%	12.5 µM	122%	
CN1c2c(ccc3cc4c(cc23)OCO4)-c2ccc3c(c2C1CC(=O)Nc1ccccc1)OCO3 (centres undefined)	33.1%	9.28 µM	125%	
COc1ccc2c(c1OC)C(CC(=O)Nc1ccccc1)N(C)c1c-2ccc2cc3c(cc12)OCO3 (centres undefined)	41.6%	8.16 µM	136%	Activity [7]: Dose-dependent-effect; Activity [8]: Active; Activity [9]: Active; Activity [10]: Active; Activity [11]: Dose-dependent-effect; Activity [12]: Dose-dependent-effect; Activity [13]: Active; Activity [14]: Non-toxic; Activity [15]: Active; Activity [16]: Dose-dependent-effect; Activity [17]: Active
COC(=O)C(C)C1c2c(ccc(OC)c2OC)-c2ccc3cc4c(cc3c2N1C)OCO4 (centres undefined)	19%	11.2 µM	101%	
CCOC(=O)CC1c2c(ccc(OC)c2OC)-c2ccc3cc4c(cc3c2N1C)OCO4 (centres undefined)	31.3%	9.56 µM	94.4%	
